Reference: BigSolDB 2.1

`CC(C)Oc1ccc2c(=O)c(-c3ccccc3)coc2c1` gave a solubility (mole fraction) (in DMAc, 278.15 K) of 0.0395, a solubility (mole fraction) (in DMAc, 283.15 K) of 0.0454 and a solubility (mole fraction) (in DMAc, 288.15 K) of 0.0534. It also gave a solubility (mole fraction) (in DMAc, 293.15 K) of 0.062, a solubility (mole fraction) (in DMAc, 298.15 K) of 0.0721 and a solubility (mole fraction) (in DMAc, 303.15 K) of 0.0841. The solubility (mole fraction) (in DMAc, 308.15 K) was 0.0981, the solubility (mole fraction) (in DMAc, 313.15 K) was 0.113 and the solubility (mole fraction) (in DMAc, 318.15 K) was 0.133. For the same compound, the solubility (mole fraction) (in DMAc, 323.15 K) was 0.152, the solubility (mole fraction) (in DMF, 278.15 K) was 0.0245 and the solubility (mole fraction) (in DMF, 283.15 K) was 0.0301. For the same compound, the solubility (mole fraction) (in DMF, 288.15 K) was 0.0352, the solubility (mole fraction) (in DMF, 293.15 K) was 0.0431 and the solubility (mole fraction) (in DMF, 298.15 K) was 0.0506. The solubility (mole fraction) (in DMF, 303.15 K) was 0.0622, the solubility (mole fraction) (in DMF, 308.15 K) was 0.0718 and the solubility (mole fraction) (in DMF, 313.15 K) was 0.0884. It also gave a solubility (mole fraction) (in DMF, 318.15 K) of 0.103, a solubility (mole fraction) (in DMF, 323.15 K) of 0.126 and a solubility (mole fraction) (in acetone, 278.15 K) of 0.00852. The solubility (mole fraction) (in acetone, 283.15 K) was 0.0102, the solubility (mole fraction) (in acetone, 288.15 K) was 0.0128 and the solubility (mole fraction) (in acetone, 293.15 K) was 0.0157. It also gave a solubility (mole fraction) (in acetone, 298.15 K) of 0.0193, a solubility (mole fraction) (in acetone, 303.15 K) of 0.0241 and a solubility (mole fraction) (in acetone, 308.15 K) of 0.0291. It also gave a solubility (mole fraction) (in acetone, 313.15 K) of 0.0363, a solubility (mole fraction) (in acetone, 318.15 K) of 0.0441 and a solubility (mole fraction) (in acetone, 323.15 K) of 0.056. For the same compound, the solubility (mole fraction) (in acetonitrile, 278.15 K) was 0.00246, the solubility (mole fraction) (in acetonitrile, 283.15 K) was 0.00336 and the solubility (mole fraction) (in acetonitrile, 288.15 K) was 0.00441. The solubility (mole fraction) (in acetonitrile, 293.15 K) was 0.0056, the solubility (mole fraction) (in acetonitrile, 298.15 K) was 0.00731 and the solubility (mole fraction) (in acetonitrile, 303.15 K) was 0.00942. It also gave a solubility (mole fraction) (in acetonitrile, 308.15 K) of 0.0122, a solubility (mole fraction) (in acetonitrile, 313.15 K) of 0.0159 and a solubility (mole fraction) (in acetonitrile, 318.15 K) of 0.0212. For the same compound, the solubility (mole fraction) (in acetonitrile, 323.15 K) was 0.0282, the solubility (mole fraction) (in dichloromethane, 278.15 K) was 0.0667 and the solubility (mole fraction) (in dichloromethane, 283.15 K) was 0.0735. The solubility (mole fraction) (in dichloromethane, 288.15 K) was 0.0809, the solubility (mole fraction) (in dichloromethane, 293.15 K) was 0.0903 and the solubility (mole fraction) (in dichloromethane, 298.15 K) was 0.0988. For the same compound, the solubility (mole fraction) (in dichloromethane, 303.15 K) was 0.108, the solubility (mole fraction) (in dichloromethane, 308.15 K) was 0.119 and the solubility (mole fraction) (in ethanol, 278.15 K) was 0.000992. It also gave a solubility (mole fraction) (in ethanol, 283.15 K) of 0.00141, a solubility (mole fraction) (in ethanol, 288.15 K) of 0.00187 and a solubility (mole fraction) (in ethanol, 293.15 K) of 0.00239. The solubility (mole fraction) (in ethanol, 298.15 K) was 0.00301, the solubility (mole fraction) (in ethanol, 303.15 K) was 0.00409 and the solubility (mole fraction) (in ethanol, 308.15 K) was 0.00521. It also gave a solubility (mole fraction) (in ethanol, 313.15 K) of 0.00696, a solubility (mole fraction) (in ethanol, 318.15 K) of 0.00872 and a solubility (mole fraction) (in ethanol, 323.15 K) of 0.012. The solubility (mole fraction) (in methanol, 278.15 K) was 0.000841, the solubility (mole fraction) (in methanol, 283.15 K) was 0.00109 and the solubility (mole fraction) (in methanol, 288.15 K) was 0.0015. It also gave a solubility (mole fraction) (in methanol, 293.15 K) of 0.00195, a solubility (mole fraction) (in methanol, 298.15 K) of 0.00244 and a solubility (mole fraction) (in methanol, 303.15 K) of 0.0032. It also gave a solubility (mole fraction) (in methanol, 308.15 K) of 0.00391, a solubility (mole fraction) (in methanol, 313.15 K) of 0.00505 and a solubility (mole fraction) (in methanol, 318.15 K) of 0.00623. It also gave a solubility (mole fraction) (in methanol, 323.15 K) of 0.00823, a solubility (mole fraction) (in methyl acetate, 278.15 K) of 0.00948 and a solubility (mole fraction) (in methyl acetate, 283.15 K) of 0.0116. The solubility (mole fraction) (in methyl acetate, 288.15 K) was 0.0142, the solubility (mole fraction) (in methyl acetate, 293.15 K) was 0.0174 and the solubility (mole fraction) (in methyl acetate, 298.15 K) was 0.0213. It also gave a solubility (mole fraction) (in methyl acetate, 303.15 K) of 0.0264, a solubility (mole fraction) (in methyl acetate, 308.15 K) of 0.0321 and a solubility (mole fraction) (in methyl acetate, 313.15 K) of 0.039. The solubility (mole fraction) (in methyl acetate, 318.15 K) was 0.0479, the solubility (mole fraction) (in methyl acetate, 323.15 K) was 0.059 and the solubility (mole fraction) (in n-butanol, 278.15 K) was 0.00166. For the same compound, the solubility (mole fraction) (in n-butanol, 283.15 K) was 0.00215, the solubility (mole fraction) (in n-butanol, 288.15 K) was 0.00294 and the solubility (mole fraction) (in n-butanol, 293.15 K) was 0.00375. It also gave a solubility (mole fraction) (in n-butanol, 298.15 K) of 0.00494, a solubility (mole fraction) (in n-butanol, 303.15 K) of 0.00645 and a solubility (mole fraction) (in n-butanol, 308.15 K) of 0.00842. The solubility (mole fraction) (in n-butanol, 313.15 K) was 0.0113, the solubility (mole fraction) (in n-butanol, 318.15 K) was 0.0153 and the solubility (mole fraction) (in n-butanol, 323.15 K) was 0.0195. It also gave a solubility (mole fraction) (in n-pentanol, 278.15 K) of 0.00192, a solubility (mole fraction) (in n-pentanol, 283.15 K) of 0.00239 and a solubility (mole fraction) (in n-pentanol, 288.15 K) of 0.00338. It also gave a solubility (mole fraction) (in n-pentanol, 293.15 K) of 0.00461, a solubility (mole fraction) (in n-pentanol, 298.15 K) of 0.00597 and a solubility (mole fraction) (in n-pentanol, 303.15 K) of 0.0073. It also gave a solubility (mole fraction) (in n-pentanol, 308.15 K) of 0.00992, a solubility (mole fraction) (in n-pentanol, 313.15 K) of 0.0125 and a solubility (mole fraction) (in n-pentanol, 318.15 K) of 0.0165. The solubility (mole fraction) (in n-pentanol, 323.15 K) was 0.0221, the solubility (mole fraction) (in n-propanol, 278.15 K) was 0.00135 and the solubility (mole fraction) (in n-propanol, 283.15 K) was 0.00172. It also gave a solubility (mole fraction) (in n-propanol, 288.15 K) of 0.00223, a solubility (mole fraction) (in n-propanol, 293.15 K) of 0.00307 and a solubility (mole fraction) (in n-propanol, 298.15 K) of 0.00399. The solubility (mole fraction) (in n-propanol, 303.15 K) was 0.00509, the solubility (mole fraction) (in n-propanol, 308.15 K) was 0.00671 and the solubility (mole fraction) (in n-propanol, 313.15 K) was 0.00877. It also gave a solubility (mole fraction) (in n-propanol, 318.15 K) of 0.0113, a solubility (mole fraction) (in n-propanol, 323.15 K) of 0.0147 and a solubility (mole fraction) (in toluene, 278.15 K) of 0.0114. It also gave a solubility (mole fraction) (in toluene, 283.15 K) of 0.0143, a solubility (mole fraction) (in toluene, 288.15 K) of 0.0174 and a solubility (mole fraction) (in toluene, 293.15 K) of 0.022. For the same compound, the solubility (mole fraction) (in toluene, 298.15 K) was 0.0271, the solubility (mole fraction) (in toluene, 303.15 K) was 0.0338 and the solubility (mole fraction) (in toluene, 308.15 K) was 0.0417. The solubility (mole fraction) (in toluene, 313.15 K) was 0.0523, the solubility (mole fraction) (in toluene, 318.15 K) was 0.0638 and the solubility (mole fraction) (in toluene, 323.15 K) was 0.0802.
